In PMC8534029 (Cells, 2021):

Target: T1, human DOR (T7-tagged, HEK293 cells) (Homo sapiens, UniProt P41143)
T1 construct: gene OPRD1
Experiment: CellKey impedance assay, agonist
Format: cell-based
Conditions: morphine up to 10^−5 M, no OT, partial agonist, EC50 n.d.

T1 sequence (P41143 whole entry, looked up): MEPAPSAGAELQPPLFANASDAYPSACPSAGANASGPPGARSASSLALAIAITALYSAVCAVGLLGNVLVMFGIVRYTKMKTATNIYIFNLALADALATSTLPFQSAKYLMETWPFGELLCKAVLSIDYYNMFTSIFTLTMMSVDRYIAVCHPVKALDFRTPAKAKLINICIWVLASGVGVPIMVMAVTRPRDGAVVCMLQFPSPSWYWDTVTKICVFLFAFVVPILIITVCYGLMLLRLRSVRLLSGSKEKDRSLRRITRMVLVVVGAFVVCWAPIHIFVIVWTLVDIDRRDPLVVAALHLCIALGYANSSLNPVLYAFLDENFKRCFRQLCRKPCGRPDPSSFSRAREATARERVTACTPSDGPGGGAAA

Compound: CN1CC[C@]23c4c5ccc(O)c4O[C@H]2[C@@H](O)C=C[C@H]3[C@H]1C5 [morphine]
- maximum response (% of SNC80 Emax): 50.6 ± 7.01%
